{"source": "patent US6992079B2", "about": "“Substituted 11-phenyl-dibenzazepine compounds useful for the treatment or prevention of diseases characterized by abnormal cell proliferation” (President Fellows of Harvard College, priority 1997, dated 2006)", "key": {"U251": {"test_system": "U251", "experiment": "In-Vitro Testing SRB panel: CNS Cancer", "assay_type": "cell-based", "conditions": "for GI50 / CC50: Homo sapiens; for CC50: read-out: LC50 (the source's name)"}, "[1]": {"test_system": "PC-3 human prostate carcinoma", "experiment": "Mouse xenograft tumor growth", "assay_type": "in vivo"}, "[2]": {"test_system": "cyclin D1 and E expression", "experiment": "Cyclin expression and cell cycle in vitro", "assay_type": "cell-based"}, "HTB174": {"test_system": "HTB174", "experiment": "SRB antiproliferative assay", "assay_type": "cell-based", "conditions": "Homo sapiens, HTB174 (Lung), 5% FCS/5 day incubation", "description": "(§1) The cells were passaged using Trypsin (Gibco)."}, "SK-OV-3": {"test_system": "SK-OV-3", "experiment": "SRB antiproliferative assay", "assay_type": "cell-based", "conditions": "Homo sapiens, SK-OV-3 (Ovary), 5% FCS/5 day incubation", "description": "as §1"}, "SK-MEL-28": {"test_system": "SK-MEL-28", "experiment": "SRB antiproliferative assay", "assay_type": "cell-based", "conditions": "Homo sapiens, SK-MEL-28 (Melanoma), 5% FCS/5 day incubation", "description": "as §1"}, "ACHN": {"test_system": "ACHN", "experiment": "SRB antiproliferative assay", "assay_type": "cell-based", "conditions": "Homo sapiens, ACHN (Renal), 5% FCS/5 day incubation", "description": "as §1"}, "HCT-15": {"test_system": "HCT-15", "experiment": "SRB antiproliferative assay", "assay_type": "cell-based", "conditions": "Homo sapiens, HCT-15 (Colon), 5% FCS/5 day incubation", "description": "as §1"}, "DU-145": {"test_system": "DU-145", "experiment": "SRB antiproliferative assay", "assay_type": "cell-based", "conditions": "Homo sapiens, DU-145 (Prostate), 5% FCS/5 day incubation", "description": "as §1"}, "3T3": {"test_system": "3T3", "experiment": "SRB antiproliferative assay", "assay_type": "cell-based", "conditions": "NIH3T3, 3T3 (Normal mouse), 5% FCS/5 day incubation", "description": "as §1"}, "HUVEC": {"test_system": "HUVEC", "experiment": "SRB antiproliferative assay", "assay_type": "cell-based", "conditions": "HUVEC (Normal human), 5% FCS/5 day incubation", "description": "as §1"}, "L929": {"test_system": "L929", "experiment": "SRB antiproliferative assay", "assay_type": "cell-based", "conditions": "L929 (Normal mouse), 5% FCS/5 day incubation", "description": "as §1"}, "CaSki": {"test_system": "CaSki", "experiment": "SRB antiproliferative assay", "assay_type": "cell-based", "conditions": "Homo sapiens, Ca-Ski, CaSki (Cervical), 5% FCS/5 day incubation", "description": "as §1"}, "GM": {"test_system": "GM", "experiment": "SRB antiproliferative assay", "assay_type": "cell-based", "conditions": "GM (Normal human), 5% FCS/5 day incubation", "description": "as §1"}, "[3]": {"test_system": "Ca^2+ from intracellular pools / capacitative Ca^2+ influx", "experiment": "Intracellular Ca2+ release and capacitative Ca2+ influx", "assay_type": "cell-based", "conditions": "in vitro"}, "[4]": {"test_system": "human melanoma MM-RU cells", "experiment": "Lung metastases in MM-RU tumor-bearing mice", "assay_type": "in vivo, nude mice"}, "[5]": {"test_system": "dominant negative PKR mutant cells", "experiment": "Growth of dominant negative PKR mutant cells", "assay_type": "cell-based", "conditions": "FIG. 12"}, "[6]": {"experiment": "Preliminary toxicity studies in mice and rats", "assay_type": "in vivo"}, "[7]": {"test_system": "PC-3 Human Prostate Tumor cells", "experiment": "XTT growth inhibition assay", "assay_type": "cell-based", "conditions": "PC-3 cells"}, "HCC-2998": {"test_system": "HCC-2998", "experiment": "In-Vitro Testing SRB panel: Colon Cancer", "assay_type": "cell-based", "description": "The dose-response curve page of the data package is created by plotting the PGs against the log10 of the corresponding concentration for every cell line. The cell line curves are grouped by subpanel. Horizontal lines are provided at the PG values of […]. The concentrations corresponding to points where the curves cross these lines are the GI50, TGI, and LC50, respectively."}, "[8]": {"conditions": "MM-RU tumor-bearing mice, 80 mg/kg/d × 5/w × 3 s.c."}, "[9]": {"conditions": "MM-RU tumor-bearing mice, 100 mg/kg/d × 28, p.o."}, "[10]": {"conditions": "administered intraperitoneally, orally or subcutaneously"}}, "note": "Read-outs that look alike come from different tables or passages of the source.", "data": [{"molecule": "COc1ccc2c(c1)CN(C(=O)c1ccc([N+](=O)[O-])cc1)c1ccc(Cl)cc1C2c1ccccc1Cl", "note": "(centres unmarked) [Compound 30]", "values": [{"measurement": "GI50", "setting": "U251; U-251", "result": 5.1, "unit": "µM"}, {"measurement": "CC50", "setting": "U251; U-251, U251", "result": "> 100", "unit": "µM"}, {"measurement": "TGI", "setting": "U251; U251", "result": ">1.00E−04", "unit": "Molar"}, {"measurement": "Percent Growth", "setting": "U251; U251, Log10 concentration −4.0 Molar", "result": 37, "unit": "%"}, {"measurement": "Percent Growth", "setting": "U251; U251, Log10 concentration −5.0 Molar", "result": 37, "unit": "%"}, {"measurement": "Percent Growth", "setting": "U251; U251, Log10 concentration −6.0 Molar", "result": 81, "unit": "%"}, {"measurement": "Percent Growth", "setting": "U251; U251, Log10 concentration −7.0 Molar", "result": 103, "unit": "%"}, {"measurement": "Percent Growth", "setting": "U251; U251, Log10 concentration −8.0 Molar", "result": 94, "unit": "%"}]}, {"molecule": "O=C(c1ccc([N+](=O)[O-])cc1)N1Cc2ccccc2C(c2ccccc2Cl)c2ccccc21", "note": "(centres unmarked) [Compound 28, N-(4′-Nitrobenzoyl)-11-(2′-chlorophenyl)-5,6-dihydro-11H-dibenz[b,e]azepine]", "values": [{"measurement": "apparent toxicity", "setting": "[1]; PC-3 mouse xenograph", "result": "no sign of apparent toxicity"}, {"measurement": "growth of PC-3 human prostate carcinoma", "setting": "[1]; mouse xenograph", "result": "significant inhibitory effects on the growth"}, {"measurement": "cell cycle arrest", "setting": "[2]", "result": "induction of G0-G1 cell cycle arrest"}, {"measurement": "cyclin D1 and E expression", "setting": "[2]", "result": "inhibit cyclin D1 and E expression"}, {"measurement": "IC50", "setting": "HTB174", "result": 0.1, "unit": "µM"}, {"measurement": "IC50", "setting": "SK-OV-3", "result": "> 1", "unit": "µM"}, {"measurement": "IC50", "setting": "SK-MEL-28", "result": 0.4, "unit": "µM"}, {"measurement": "IC50", "setting": "ACHN", "result": 0.7, "unit": "µM"}, {"measurement": "IC50", "setting": "HCT-15", "result": 0.4, "unit": "µM"}, {"measurement": "IC50", "setting": "DU-145", "result": 0.9, "unit": "µM"}, {"measurement": "IC50", "setting": "3T3", "result": "> 1", "unit": "µM"}, {"measurement": "IC50", "setting": "HUVEC", "result": 0.7, "unit": "µM"}, {"measurement": "IC50", "setting": "L929", "result": 0.6, "unit": "µM"}, {"measurement": "IC50", "setting": "CaSki", "result": 0.5, "unit": "µM"}, {"measurement": "IC50", "setting": "GM", "result": 0.9, "unit": "µM"}, {"measurement": "Ca^2+ release from intracellular pools", "setting": "[3]", "result": "releases Ca^2+ from intracellular pools"}, {"measurement": "capacitative Ca^2+ influx into the cell", "setting": "[3]", "result": "inhibits capacitative Ca^2+ influx"}, {"measurement": "Body Wt. Change", "setting": "[4]; [8]", "result": 107, "unit": "%"}, {"measurement": "Liver Wt.", "setting": "[4]; [8]", "result": "0.97 ± 0.12", "unit": "gram"}, {"measurement": "Lung Metastases", "setting": "[4]; [8]", "result": "46 ± 12"}, {"measurement": "Body Wt. Change", "setting": "[4]; [9]", "result": 105, "unit": "%"}, {"measurement": "Liver Wt.", "setting": "[4]; [9]", "result": "1.00 ± 0.09", "unit": "gram"}, {"measurement": "Lung Metastases", "setting": "[4]; [9]", "result": "45 ± 10"}, {"measurement": "Lung Metastases", "setting": "[4]; nude mice, MM-RU cells, oral administration or subcutaneous injection", "result": "lung metastases were significantly reduced"}, {"measurement": "resistance of dominant negative PKR mutant cells to compound", "setting": "[5]", "result": "resistance of dominant negative PKR mutant cells"}, {"measurement": "body weight losses", "setting": "[6]; [10]", "result": "did not cause significant body weight losses"}, {"measurement": "gross observations of brain, heart, lungs, liver, spleen, kidney and gastrointestinal tract", "setting": "[6]; [10]", "result": "no abnormalities were detected"}, {"measurement": "systemic toxicity", "setting": "[6]; mice and rats", "result": "no obvious systemic toxicity"}, {"measurement": "GI50", "setting": "U251; U-251, 48 h", "result": 0.476, "unit": "µM"}, {"measurement": "CC50", "setting": "U251; U-251, U251, 48 h", "result": "> 100", "unit": "µM"}, {"measurement": "TGI", "setting": "U251; U251, 48 h", "result": ">1.00E−04", "unit": "Molar"}, {"measurement": "Percent Growth", "setting": "U251; U251, log10 conc −4.0 Molar, 48 h", "result": 8, "unit": "%"}, {"measurement": "Percent Growth", "setting": "U251; U251, log10 conc −5.0 Molar, 48 h", "result": 9, "unit": "%"}, {"measurement": "Percent Growth", "setting": "U251; U251, log10 conc −6.0 Molar, 48 h", "result": 28, "unit": "%"}, {"measurement": "Percent Growth", "setting": "U251; U251, log10 conc −7.0 Molar, 48 h", "result": 94, "unit": "%"}, {"measurement": "Percent Growth", "setting": "U251; U251, log10 conc −8.0 Molar, 48 h", "result": 104, "unit": "%"}, {"measurement": "PC-3 prostate cancer cell growth (XTT)", "setting": "[7]", "result": "inhibits PC-3 prostate cancer cell growth"}]}, {"molecule": "COc1cccc2c1C(c1ccccc1Cl)c1cc(Cl)ccc1N(C(=O)c1ccc([N+](=O)[O-])cc1)C2", "note": "(centres unmarked) [Compound 31]", "values": [{"measurement": "TGI", "setting": "HCC-2998; HCC-2998", "result": ">1.00E−04", "unit": "Molar"}, {"measurement": "Percent Growth", "setting": "HCC-2998; HCC-2998, log10 conc -4 Molar", "result": 33, "unit": "%"}, {"measurement": "Percent Growth", "setting": "HCC-2998; HCC-2998, log10 conc -5 Molar", "result": 45, "unit": "%"}, {"measurement": "Percent Growth", "setting": "HCC-2998; HCC-2998, log10 conc -6 Molar", "result": 59, "unit": "%"}, {"measurement": "Percent Growth", "setting": "HCC-2998; HCC-2998, log10 conc -7 Molar", "result": 93, "unit": "%"}, {"measurement": "Percent Growth", "setting": "HCC-2998; HCC-2998, log10 conc -8 Molar", "result": 104, "unit": "%"}, {"measurement": "GI50", "setting": "HCC-2998; Homo sapiens, HCC 2998", "result": 4.34, "unit": "µM"}, {"measurement": "CC50", "setting": "HCC-2998; Homo sapiens, HCC-2998, read-out: LC50 (the source's name)", "result": "> 100", "unit": "µM"}]}]}
